Experimental data taken from patent US5366963A, “Gangliosides with immunosuppressive ceramide moieties” (The Regents of the University of California, priority 1993, dated 1994).
“And” between values parts separate entries of the source, which are not always exact repeats. Equal values may be shown once. Read-outs that look alike come from different tables or passages of the source.

How the values were obtained:
[1] = system: normal human peripheral blood mononuclear cells (PBMC); experiment: cells; format: cell-based; settings: for inhibition at 5 µM / inhibition at 10 µM / inhibition at 2.5 µM: Homo sapiens, PBMC
[2] = system: humoral or cellular immunity; settings: Presti et al. 1989; cited from earlier work

Molecule	cpm (3H-thymidine uptake) [1]	immunosuppressive activity (in words) [1]	inhibition at 5 µM [1]	inhibition at 10 µM [1]	inhibition at 2.5 µM ([1]; read-out: % inhibition (NI))	inhibition at 2.5 µM ([1]; read-out: % inhibition)	suppressive effect on humoral or cellular immunity in vivo [2]
CCCCCCCCCCCCC/C=C/[C@@H](O)[C@H](CO[C@@H]1O[C@H](CO)[C@@H](O[C@@H]2O[C@H](CO)[C@H](O[C@@H]3O[C@H](CO)[C@H](O)[C@H](O)[C@H]3NC(C)=O)[C@H](O[C@]3(C(=O)O)C[C@H](O)[C@@H](NC(C)=O)[C@H]([C@H](O)[C@H](O)CO)O3)[C@H]2O)[C@H](O)[C@H]1O)NC(=O)C(O)CCCCCCCCCCCCCCCC (stereo partly drawn) [d18:1-hC18:0 GM2]	16.7 cpm × 10^-3 and 11.4 cpm × 10^-3 and 12.9 cpm × 10^-3	less immunosuppressive than the non-hydroxylated species	30%	21%	< 0%	–	–
CCCCCCCCCCCCC/C=C/[C@@H](O)[C@H](CO[C@@H]1O[C@H](CO)[C@@H](O[C@@H]2O[C@H](CO)[C@H](O[C@@H]3O[C@H](CO)[C@H](O)[C@H](O)[C@H]3NC(C)=O)[C@H](O[C@]3(C(=O)O)C[C@H](O)[C@@H](NC(C)=O)[C@H]([C@H](O)[C@H](O)CO)O3)[C@H]2O)[C@H](O)[C@H]1O)NC(=O)CCCCCCCCCCCCCCCCC [d18:1-C18:0 GM2]	–	–	47%	86%	–	31%	–
GM1 ganglioside	–	–	–	–	–	–	no evidence of a suppressive effect
